Assays:
[1] = Metabolism in SD rats: distribution of metabolites in urine; assay type: in vivo; details: male SD rats, 50 mg/kg oral, five consecutive days, HPLC
Experimental: Each test compound was dissolved in 30% PEG400 and administered orally to male SD rats by gavages at the dose level of 50 mg/kg (when using co-crystals, the weight calculation was based on free drug) for five consecutive days. Control rats were given 30% PEG400 only. All rats were housed in metabolic cages individually. Food and water were supplied ad libitum. Clinical observations (with attention to diarrhea symptoms) were performed twice daily. Food and water consumption were determined daily. Urine was collected pre-determined intervals: pre-dose, 0-4 hours, 4-8 hours, and 8-24 hours post-dose. Metabolites were analyzed and identified by LC/MS. The structures of the metabolites were confirmed by re-synthesis or isolation from the urine by preparative HPLC and NMR analysis. On day 6, all animals were sacrificed and gross necropsy was performed. The urine from two rats for each test compound was collected and pooled. The samples were diluted (1 mL urine in 4 mL of methanol) and analyzed by LC-MS: Waters 2695 Separations Module equipped with a Waters 2996 Photodiode Array Detector and a Waters Micromass ZQ Detector; Waters XTerra C18 3.5 μm, 20 mm×2.1 mm column, 1.0 mL/min, detection at 190-400 nm; 1.7 min gradient 10-50% A, followed by 1.8 min gradient 50-95% A, hold 1 min at 95% A; solvent A: 100% acetonitrile+0.045% formic acid; solvent B: Milli-Q water+0.1% formic acid. The urine samples were analyzed from 0-4 hours, 4-8 hours, 8-24 hours and 0-24 hours after administration. The ratio of metabolites was highly consistent within each time for each rat. The metabolites were identified by mass then re-synthesized to confirm their identity and the relative distribution was assayed using HPLC. […] See also FIGS. 1, 2A-2C, 3A-3D, and 4A-4C.

[2] = biological target: T1, human SGLT1 (Homo sapiens, UniProt P13866); details: read-out: SGLT1 IC50; COS-7 cells expressing human SGLT1; 25% human serum; 2 hours
T1 sequence (P13866 1-664): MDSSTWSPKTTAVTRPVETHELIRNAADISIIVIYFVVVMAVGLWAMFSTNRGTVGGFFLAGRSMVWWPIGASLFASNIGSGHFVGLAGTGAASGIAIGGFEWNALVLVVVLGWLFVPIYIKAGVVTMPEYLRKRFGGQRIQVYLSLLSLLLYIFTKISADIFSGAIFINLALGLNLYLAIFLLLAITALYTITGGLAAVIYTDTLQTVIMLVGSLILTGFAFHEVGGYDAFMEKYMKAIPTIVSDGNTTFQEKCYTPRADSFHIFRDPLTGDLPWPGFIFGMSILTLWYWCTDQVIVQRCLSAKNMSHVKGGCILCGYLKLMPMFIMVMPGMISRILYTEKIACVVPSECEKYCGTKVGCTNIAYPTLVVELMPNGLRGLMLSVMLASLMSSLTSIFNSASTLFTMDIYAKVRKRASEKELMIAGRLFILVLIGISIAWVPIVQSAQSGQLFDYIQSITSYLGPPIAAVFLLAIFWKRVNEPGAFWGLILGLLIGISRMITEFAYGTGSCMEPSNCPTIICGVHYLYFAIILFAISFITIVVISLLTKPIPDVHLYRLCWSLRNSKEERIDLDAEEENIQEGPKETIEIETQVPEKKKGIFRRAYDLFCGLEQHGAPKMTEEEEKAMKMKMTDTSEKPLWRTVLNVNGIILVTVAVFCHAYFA
Experimental: Full-length human SGLT1 cDNA in the pDream2.1 expression vector was obtained from GenScript Corporation and propagated in Escherichia coli strain DH5α using Luria-Bertani (LB) medium containing ampicillin. Plasmid DNA was isolated using the QIAGEN Plasmid Midi Kit (QIAGEN Inc.). […] Transfected cells were stored in DMEM containing 10% dimethyl sulfoxide (DMSO) at −80° C.
Cells expressing SGLT1 or SGLT2 were seeded on 96-well ScintiPlate scintillating plates (PerkinElmer, Inc.) in DMEM containing 10% FBS (1×10^5 cells per well in 1001 medium) incubated at 37° C. under 5% CO2 for 48 hours prior to the assay. […] Cells were washed twice with 150 μl of wash buffer (137 mM N-methylglucamine, 10 mM Tris/Hepes, pH 7.2) and methyl-α-D-[U-^14C]glucopyranoside uptake was quantified using a TopCount scintillation counter (PerkinElmer, Inc.). Sodium-dependent glucopyranoside uptake was measured by subtracting the values obtained with sodium-free buffer from those obtained using sodium buffer (average of triplicate determinations). The IC50 for SGLT2 and SGLT1 were determined, and the selectivity for SGLT2 inhibition was calculated by dividing the SGLT1 IC50 by the SGLT2 IC50.

[3] = system: beagle dogs; test: Urinary glucose excretion in beagle dogs; assay type: in vivo; details: separate experiment (Table 4A)
Experimental: Each test compound was dissolved in 10% PEG400 and administered orally to overnight-fasted beagle dogs by gavage at the dose level of 0.03 mg/kg. Control dogs were given 10% PEG400 only. One hour post dosing, glucose solution (2 g/kg, 5 mL/kg) was administered by oral gavage. Urine was collected within metabolic cages from 0 to 8 hours, and 8 to 24 hours post-dosing for urine volume and glucose measurement. Food was removed 16 hours before dosing and then provided 3 hours after dosing. Water was supplied ad libitum. The concentration of urinary glucose was determined at 8 hours and 24 hours post-dose using a biochemistry analyzer.

[4] = biological target: T2, CYP3A4 (Homo sapiens, UniProt P08684); test: P450-Glo CYP screening kit, CYP3A4 inhibition; assay type: in vitro ADME; details: luminescence, read-out: IC50 3A4
T2 construct: purchased Promega
T2 sequence (P08684 whole entry): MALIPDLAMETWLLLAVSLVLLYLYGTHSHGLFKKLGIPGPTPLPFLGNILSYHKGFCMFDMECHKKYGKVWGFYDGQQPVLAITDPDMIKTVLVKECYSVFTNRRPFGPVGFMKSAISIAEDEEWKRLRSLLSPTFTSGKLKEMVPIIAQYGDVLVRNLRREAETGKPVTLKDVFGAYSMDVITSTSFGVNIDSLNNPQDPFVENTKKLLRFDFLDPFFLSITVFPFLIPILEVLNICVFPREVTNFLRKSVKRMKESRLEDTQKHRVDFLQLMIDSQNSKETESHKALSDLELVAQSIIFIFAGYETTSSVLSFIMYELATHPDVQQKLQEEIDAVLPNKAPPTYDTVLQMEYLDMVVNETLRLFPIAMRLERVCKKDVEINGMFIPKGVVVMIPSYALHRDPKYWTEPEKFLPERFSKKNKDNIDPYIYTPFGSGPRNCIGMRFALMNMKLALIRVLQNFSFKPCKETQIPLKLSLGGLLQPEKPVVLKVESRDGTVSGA
Description: P450-Glo™ CYP Screening Kits for CYP1A2, CYP3A4 and CYP2C19 were purchased from Promega. […] Luminescence was quantified using a Victor 3 spectrophotometer (PerkinElmer).

[5] = Pharmacokinetic parameters in SD rats; assay type: in vivo, Sprague-Dawley rats; details: single oral 3 mg/kg in 30% PEG400, plasma
Experimental: The pharmacokinetic study of each test compound was conducted in 4 Sprague-Dawley rats following a single oral administration of 3 mg/kg of the compound. The dose was prepared by dissolving test article in appropriate volume of 30% PEG400. The plasma samples were collected from the orbital plexus at 0.083, 0.25, 0.50, 1.0, 2.0, 4.0, 6.0, 8.0, 12 and 24 hours post dose, and the plasma concentrations were determined by a developed LC-MS/MS method.

[2H]C([2H])([2H])Oc1ccc(C([2H])([2H])c2cc([C@@H]3O[C@H](CO)[C@@H](O)[C@H](O)[C@H]3O)ccc2Cl)cc1 [compound 19, (2S,3R,4R,5S,6R)-2-(4-chloro-3-((4-(methoxy-d3)phenyl)methyl-d2)phenyl)-6-(hydroxymethyl)tetrahydro-2H-pyran-3,4,5-triol]
Distribution of Metabolites in Urine (% of total), Peak 1 (Parent) [1]: 87%
IC50 [2]: 0.82 µM
Urinary Glucose Excretion in Dogs, 0-24 h (mean ± SD) [3]: 15928 ± 321 mg
Urinary Glucose Excretion in Dogs, 8-24 h (mean ± SD) [3]: 12516 ± 485 mg
IC50 [4]: > 1000 µM

COc1ccc(Cc2cc([C@@H]3O[C@H](CO)[C@@H](O)[C@H](O)[C@H]3O)ccc2Cl)cc1 [Ref B, (2S,3R,4R,5S,6R)-2-(4-chloro-3-(4-methoxybenzyl)phenyl)-6-(hydroxymethyl)tetrahydro-2H-pyran-3,4,5-triol, reference compound]
CL/F ([5]; Sprague-Dawley, rat): 9.47 mL/min/kg
AUC(0-t) ([5]; Sprague-Dawley, rat, read-out: AUC0-t (mean ± SD)): 5240 ± 715 ng·h/mL
Cmax (mean ± SD) [5]: 1638 ± 326 ng/mL
t1/2 (mean ± SD) [5]: 3.55 ± 1.80 h
tmax (mean ± SD) [5]: 0.56 ± 0.31 h
Distribution of Metabolites in Urine (% of total), Peak 1 (Parent) [1]: 72%
IC50 [2]: 0.54 µM
Urinary Glucose Excretion in Dogs, 0-8 h (mean ± SD) ([3]; 0-8 h): 3322 ± 464 mg
Urinary Glucose Excretion in Dogs, 0-24 h (mean ± SD) [3]: 16726 ± 1507 mg
Urinary Glucose Excretion in Dogs, 8-24 h (mean ± SD) [3]: 13404 ± 1888 mg
IC50 [4]: 250 µM
